Assay results reported in US20260207621A1 (Vividion Therapeutics, Inc., priority 2022, published 2026).
pIC50: −log10 of the molar value.

Key:
[1] = target: T1, KEAP1 C151 (Homo sapiens, UniProt Q14145); test: Nrf2 TMT measurement: in vitro TE50 for KEAP1 C151 (IA-DTB competition, targeted TMT mass spectrometry) in MDA-MB-468 cell lysate; format: binding; conditions: in vitro target engagement of KEAP1 C151, targeted TMT, read-out: KEAP1_C151 TE50
T1 construct: treating 500 μg of cell lysate generated from MDA-MB-468 breast cancer cells with DMSO or compound; endogenous in cells; host or cells: MDA-MB-468 breast cancer cell lysate
T1 sequence (Q14145 whole entry): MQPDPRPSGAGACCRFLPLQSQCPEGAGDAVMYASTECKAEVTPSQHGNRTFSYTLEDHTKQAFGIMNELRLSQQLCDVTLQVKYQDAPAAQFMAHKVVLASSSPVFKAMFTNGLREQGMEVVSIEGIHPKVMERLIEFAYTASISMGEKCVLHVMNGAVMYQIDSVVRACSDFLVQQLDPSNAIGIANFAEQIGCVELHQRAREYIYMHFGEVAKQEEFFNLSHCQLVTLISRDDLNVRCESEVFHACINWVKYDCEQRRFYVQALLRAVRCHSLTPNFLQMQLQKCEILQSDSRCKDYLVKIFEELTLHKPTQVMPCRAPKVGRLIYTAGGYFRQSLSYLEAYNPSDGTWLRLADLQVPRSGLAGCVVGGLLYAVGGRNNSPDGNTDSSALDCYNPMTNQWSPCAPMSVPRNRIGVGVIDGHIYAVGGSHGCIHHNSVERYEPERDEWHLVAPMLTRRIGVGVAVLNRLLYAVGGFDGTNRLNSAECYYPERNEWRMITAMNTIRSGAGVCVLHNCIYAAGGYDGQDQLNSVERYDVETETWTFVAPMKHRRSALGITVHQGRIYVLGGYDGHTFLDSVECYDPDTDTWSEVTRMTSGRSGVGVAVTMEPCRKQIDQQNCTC
How it was run: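 MDA-MB-468 lysate (500 μg) treated with compound for 1 h at room temperature, then 200 μM IA-DTB for 1 h. Labeled peptides streptavidin-enriched after trypsin digest, TMT-labeled and quantified by targeted MS3 on the KEAP1 C151 peptide. IC50 from dose-response curve fitting.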

[2] = tested on: Nrf2; test: Nrf2 antagonism assay: ARE luciferase reporter in KYSE-70 cells; format: cell-based; conditions: positive Imax corresponds to Nrf2 antagonism; for Emax: Homo sapiens, KYSE-70, KYSE-70 cells, read-out: KYSE70 Cellular ARE Luciferase Imax (%); for KYSE70 Cellular ARE Luciferase Imax (%): KYSE-70 cells
How it was run: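 KYSE-70 esophageal squamous carcinoma cells carrying Nrf2 W24C (constitutively Nrf2-high) with an ARE-driven luciferase reporter. Loss of luciferase signal reflects Nrf2 antagonism via KEAP1 C151 engagement. IC50 and Imax come from dose-response curves; positive Imax means antagonism.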

Row | pIC50 [1] | Structure (SMILES) | Emax [2] [%] | KYSE70 Cellular ARE Luciferase Imax (%) [2] [%]
1 | > 8.19 | C=CC(=O)N1CCOCC1c1cc(Cl)nc(-c2cc(C(N)=O)ncn2)c1 (single isomer, unassigned) [Compound 125, 6-(4-(4-acryloylmorpholin-3-yl)-6-chloropyridin-2-yl)pyrimidine-4-carboxamide] | 91 | –
2 | 8.48 | C=CC(=O)N1CCOCC1c1cc(Cl)cc(-c2ccn3ccnc3n2)c1 (single isomer, unassigned) [Compound 63, 1-(3-(3-chloro-5-(imidazo[1,2-a]pyrimidin-7-yl)phenyl)morpholino)prop-2-en-1-one] | 63 | –
3 | 7.64 | C=CC(=O)N1CCOC[C@H]1c1cc(Cl)cc(-c2ncc(N)cn2)c1 (single isomer, unassigned) [Compound 92] | 94 | –
4 | 7.60 | C=CC(=O)N1C[C@@H](C)N(C(C)=O)C[C@@H]1c1cc(Cl)cc(-c2ncc(N)cn2)c1 (single isomer, unassigned) [Compound 236] | – | 87
5 | 7.74 | C=CC(=O)N1CCN(C(C)=O)C[C@H]1c1cc(Cl)cc(-c2ccc(F)c(C(N)=O)c2)c1 (single isomer, unassigned) [Compound 79] | 85 | –
6 | 7.39 | C=CC(=O)N1[C@H](C)COC[C@H]1c1cc(Cl)nc(-c2ccn3ccnc3c2)c1 (single isomer, unassigned) [Compound 138] | 75 | –
7 | 7.20 | C=CC(=O)N1CCS(=O)(=O)CC1c1cc(Cl)cc(-c2nnn(C)n2)c1 (single isomer, unassigned) [Compound 32, 1-(3-(3-chloro-5-(2-methyl-2H-tetrazol-5-yl)phenyl)-1,1-dioxidothiomorpholino)prop-2-en-1-one] | 52 | –

The remaining lines, values behind:

Row | Structure (SMILES) | pIC50 [1] | Emax [2] [%] | KYSE70 Cellular ARE Luciferase Imax (%) [2] [%]
8 | C=CC(=O)N1CCOC[C@H]1c1cc(Cl)cc(-c2ncnc(NCCCN(C)C)n2)c1 (single isomer, unassigned) [Compound 221] | 6.55 | 78 | –
9 | C=CC(=O)N1CC2(COC2)C1c1cc(Cl)cc(-c2ccnc(N)n2)c1 (single isomer, unassigned) [Compound 168] | 6.92 | 74 | –
10 | C=CC(=O)N1CCOC[C@H]1c1cc(Cl)cc(-c2nc(N)cnc2F)c1 (single isomer, unassigned) [Compound 280] | 7.49 | 90 | –
11 | C=CC(=O)N1CCOC[C@H]1c1cc(Cl)cc(-c2nc(N)[nH]c(=O)n2)c1 (single isomer, unassigned) [Compound 177] | 6.82 | 87 | –
12 | C=CC(=O)N1CC[C@@](C)(O)C[C@@H]1c1cc(Cl)cc(-c2ncc(N)cn2)c1 (single isomer, unassigned) [Compound 264] | 6.80 | 86 | –
13 | C=CC(=O)N1CCOC[C@H]1c1cc(Cl)cc(-c2ccc3c(c2)C(=O)NC3)c1 (single isomer, unassigned) [Compound 82] | > 8.00 | 77 | –
14 | C=CC(=O)N1CC2(CCCC2)OCC1(C)c1cc(Cl)cc(-c2cc(N)ncn2)c1 (single isomer, unassigned) [Compound 170, 1-(8-(3-(6-aminopyrimidin-4-y1)-5-chlorophenyl)-8-methyl-6-oxa-9-azaspiro[4.5]decan-9-yl)prop-2-en-1-one] | 5.78 | 81 | –
15 | C=CC(=O)N1CC2(CC2)OCC1c1cc(Cl)cc(-c2ccnc(C)n2)c1 (single isomer, unassigned) [Compound 83, 1-(6-(3-chloro-5-(2-methylpyrimidin-4-yl)phenyl)-4-oxa-7-azaspiro[2.5]octan-7-yl)prop-2-en-1-one] | 7.05 | 86 | –
16 | C=CC(=O)N1CCOC[C@H]1c1cc(Cl)cc(C2CNC(=S)CO2)c1 (single isomer, unassigned) [Compound 241] | 6.77 | – | 87
